16 compounds from article PMC8243326, “Data-Driven Ensemble Docking to Map Molecular Interactions of Steroid Analogs with Hepatic Organic Anion Transporting Polypeptides” (Journal of Chemical Information and Modeling, 2021) can be followed below.

Data set [1] addresses T1, OATP1B1 (Homo sapiens, UniProt Q9Y6L6).
T1 sequence (Q9Y6L6 1-691): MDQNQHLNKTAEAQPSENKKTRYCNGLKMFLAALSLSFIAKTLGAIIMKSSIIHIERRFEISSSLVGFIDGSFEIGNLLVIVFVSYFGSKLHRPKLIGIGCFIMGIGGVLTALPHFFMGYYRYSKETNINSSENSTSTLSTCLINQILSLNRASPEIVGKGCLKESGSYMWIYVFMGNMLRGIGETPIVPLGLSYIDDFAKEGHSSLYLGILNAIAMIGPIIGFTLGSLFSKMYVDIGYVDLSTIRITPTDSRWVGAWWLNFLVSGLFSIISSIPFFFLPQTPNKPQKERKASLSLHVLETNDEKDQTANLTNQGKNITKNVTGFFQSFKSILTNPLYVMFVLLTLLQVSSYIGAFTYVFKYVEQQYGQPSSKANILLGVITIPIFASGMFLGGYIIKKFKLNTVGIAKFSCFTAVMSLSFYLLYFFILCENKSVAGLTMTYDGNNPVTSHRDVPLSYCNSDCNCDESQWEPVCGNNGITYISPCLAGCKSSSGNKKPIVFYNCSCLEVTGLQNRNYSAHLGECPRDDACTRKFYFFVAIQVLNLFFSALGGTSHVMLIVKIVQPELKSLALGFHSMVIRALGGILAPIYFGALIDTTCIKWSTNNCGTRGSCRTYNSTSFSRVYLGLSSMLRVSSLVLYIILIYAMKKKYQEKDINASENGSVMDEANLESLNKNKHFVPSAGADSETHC
The data set is described as follows: Pyranine uptake inhibition in A431 cells overexpressing OATP1B1. The conditions noted are these: for activity on OATP1B1 and OATP1B3 (in words): statement covers both OATP1B1 and OATP1B3. As for the experimental part: IC50 values were calculated based on transport inhibition measurements (see below) by Hill1 fit, using the Origin Pro8.6 software (OriginLab Corporation, Northampton, MA, US).
(§1) 20 mM stocks in DMSO were stored for further usage at −20 °C. A431 cells overexpressing OATPs, OATP1B1, OATP1B3, or OATP2B1 or mock transfected controls were generated previously.[60] A431 cells were maintained in DMEM medium (Thermo Fischer Scientific, Waltham, MA, US) supplemented with 10% fetal bovine serum, 2 mM L-glutamine, 100 units/mL penicillin, and 100 μg/mL streptomycin at 37 °C with 5% CO2. […] The uptake of pyranine was measured on microplates based on the method developed by us previously.[60],[61]
Briefly, 1 day prior to the uptake measurement cells (8 × 10^4 cells/well in 200 μL DMEM) were seeded on 96-well plates. […] OATP-dependent transport was calculated by extracting fluorescence measured in mock transfected cells. Transport activity was calculated based on the fluorescence signal in the absence (100%) of the tested compounds. Experiments were repeated at least three times on cells deriving from different passages.
(§2) IC50 values were calculated by Hill1 fit, using the (OriginLab Corporation, Northampton, MA, US).

In data set [2] the target is T2, OATP2B1 (Homo sapiens, UniProt O94956).
T2 sequence (O94956 1-709): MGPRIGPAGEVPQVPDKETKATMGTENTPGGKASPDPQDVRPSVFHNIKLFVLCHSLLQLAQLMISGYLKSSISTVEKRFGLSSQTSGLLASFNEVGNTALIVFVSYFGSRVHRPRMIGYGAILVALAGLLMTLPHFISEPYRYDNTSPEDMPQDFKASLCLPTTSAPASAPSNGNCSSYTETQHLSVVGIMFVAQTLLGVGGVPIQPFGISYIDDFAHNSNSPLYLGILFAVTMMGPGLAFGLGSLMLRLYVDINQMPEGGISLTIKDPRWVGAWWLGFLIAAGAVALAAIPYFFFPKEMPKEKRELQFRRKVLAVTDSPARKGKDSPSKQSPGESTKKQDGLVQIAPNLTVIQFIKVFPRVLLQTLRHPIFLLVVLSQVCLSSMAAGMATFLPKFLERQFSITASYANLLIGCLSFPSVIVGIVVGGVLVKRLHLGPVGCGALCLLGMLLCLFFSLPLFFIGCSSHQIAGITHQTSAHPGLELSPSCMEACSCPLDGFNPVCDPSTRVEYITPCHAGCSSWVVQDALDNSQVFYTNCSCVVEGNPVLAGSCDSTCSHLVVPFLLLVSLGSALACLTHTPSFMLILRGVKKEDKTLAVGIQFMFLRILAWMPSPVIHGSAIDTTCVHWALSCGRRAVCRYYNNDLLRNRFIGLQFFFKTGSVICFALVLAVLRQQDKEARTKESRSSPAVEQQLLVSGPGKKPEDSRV
The data set can be described thus: Pyranine uptake inhibition in A431 cells overexpressing OATP2B1. The note with it: for fold decrease in activity compared with compound 11: 3-hydroxy and 3-methoxy analogs vs 3-benzyloxy compound 11; for selectivity for OATP2B1 (in words): vs OATP1B1 and OATP1B3. As for the experimental part: (§3) Compounds with measured bioactivities (Km, IC50, Ki, and EC50 bioactivity end points or percentage inhibition values) on OATP1B1 (n = 440 compounds), OATP1B3 (n = 936 compounds), or OATP2B1 (n = 173 compounds) were collected from the open domain by utilizing a KNIME workflow, which collects data from five independent data sources as described in Tuerkova et al.[15] […] IC50 values were calculated based on transport inhibition measurements (see below) by Hill1 fit, using the Origin Pro8.6 software (OriginLab Corporation, Northampton, MA, US).
as §1
(§4) Briefly, 1 day prior to the uptake measurement cells (8 × 10^4 cells/well in 200 μL DMEM) were seeded on 96-well plates. On the following day, the medium was removed, and the cells were washed three times with 200 μL of phosphate-buffered saline (PBS, pH 7.4) and preincubated with 50 μL of uptake buffer (125 mM NaCl, 4.8 mM KCl, 1.2 mM CaCl2, 1.2 mM KH2PO4, 12 mM MgSO4, 25 mM MES (2-(N-morpholino)ethanesulfonic acid, and 5.6 mM glucose, pH 5.5) with or without increasing concentrations of the tested compounds. The reaction was started by the addition of 50 μL of uptake buffer containing pyranine in a final concentration of 10 μM (OATP1B1) or 20 μM (OATP1B3 and OATP2B1). Cells were incubated with the dye at 37 °C for 15 min (OATP1B1 and OATP2B1) or 30 min (OATP1B3), after which the supernatant was removed, and the cells were washed three times with 200 μL of ice-cold PBS. Fluorescence (in 200 μL of PBS/well) was determined in an Enspire plate reader (PerkinElmer, Waltham, MA, Ex/Em = 403/517 nm). OATP-dependent transport was calculated by extracting fluorescence measured in mock transfected cells. Transport activity was calculated based on the fluorescence signal in the absence (100%) of the tested compounds. Experiments were repeated at least three times on cells deriving from different passages.
as §2

In data set [3] the target is T3, OATP1B3 (Homo sapiens, UniProt Q9NPD5).
T3 sequence (Q9NPD5 1-702): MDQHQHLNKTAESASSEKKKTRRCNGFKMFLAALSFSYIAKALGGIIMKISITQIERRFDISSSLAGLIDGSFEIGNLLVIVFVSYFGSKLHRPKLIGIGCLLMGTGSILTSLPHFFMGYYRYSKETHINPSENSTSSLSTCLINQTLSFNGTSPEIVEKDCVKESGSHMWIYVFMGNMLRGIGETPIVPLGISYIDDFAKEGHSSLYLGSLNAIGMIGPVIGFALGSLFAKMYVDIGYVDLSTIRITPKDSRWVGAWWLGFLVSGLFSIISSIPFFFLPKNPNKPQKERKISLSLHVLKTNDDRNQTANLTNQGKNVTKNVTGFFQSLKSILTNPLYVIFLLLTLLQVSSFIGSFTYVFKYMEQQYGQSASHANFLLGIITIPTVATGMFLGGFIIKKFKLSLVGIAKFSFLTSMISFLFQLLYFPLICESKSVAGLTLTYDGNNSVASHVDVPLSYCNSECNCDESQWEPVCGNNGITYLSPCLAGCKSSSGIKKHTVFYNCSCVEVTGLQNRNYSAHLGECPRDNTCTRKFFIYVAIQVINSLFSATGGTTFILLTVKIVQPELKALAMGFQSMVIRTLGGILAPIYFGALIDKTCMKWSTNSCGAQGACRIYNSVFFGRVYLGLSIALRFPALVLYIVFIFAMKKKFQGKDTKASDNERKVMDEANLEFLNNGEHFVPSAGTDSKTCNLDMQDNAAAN
The data set is described as follows: Pyranine uptake inhibition in A431 cells overexpressing OATP1B3. As for the experimental part:
as §3, §1, §4, §2

Regarding `CCOP(=O)(OCC)c1cc2c(cc1OC)CCC1C2CC[C@@]2(C)C(=O)CCC12` (some centres unmarked) [Compound 15], the concentration for half-maximal inhibition (IC50) in data set [1] was found to be 10.1 µM; in data set [2] it was 2.96 µM; in data set [3], 9.5 µM. Besides, the “activity on OATP1B1 and OATP1B3 (in words)” value (from here on “activity … (in words)”) in data set [1] is “rather inactive”. The “fold decrease in activity compared with compound 11” value in data set [2] (OATP2B1) is reported as “approximately 17 fold”.

As to `C[C@@]12CCC3c4ccc(O)cc4CCC3C1CCC2=O` (stereo partly drawn) [Compound 1, 13α-estrone], the IC50 in data set [2] and in data set [3] was greater than 50 µM each time.

With `C[C@@]12CCC3c4ccc(O)c(Cl)c4CCC3C1CCC2=O` (some centres unmarked) [Compound 10], the 50% inhibitory concentration (IC50) in data set [1] was 25 µM; in data set [2] it was 10.5 µM; in data set [3], greater than 50 µM. In addition, the IC50 at 15 min in data set [2] (human, pH 5.5) was 10.5 µM.

As to `CCOP(=O)(OCC)c1c(OC)ccc2c1CCC1C2CC[C@@]2(C)C(=O)CCC12` (some centres unmarked) [Compound 16], the IC50 in data set [1] was 32.4 µM; in data set [2], 2.74 µM; in data set [3], 11.8 µM. Further, the “activity … (in words)” value in data set [1] was “rather inactive”.

As for `CCOP(=O)(OCC)c1cc2c(cc1OCc1ccccc1)CCC1C2CC[C@@]2(C)C(=O)CCC12` (some centres unmarked) [Compound 11], the half-maximal inhibitory concentration (IC50) is 0.76 µM in data set [1], 0.18 µM in data set [2] and 2.18 µM in data set [3]. Besides, the “activity … (in words)” value in data set [1] is recorded as “highly active”.

Consider `COc1cc2c(cc1Br)C1CC[C@@]3(C)C(=O)CCC3C1CC2` (some centres unmarked) [Compound 4], for which the concentration for half-maximal inhibition (IC50) is greater than 50 µM in data set [1], 8.39 µM in data set [2] and greater than 50 µM in data set [3]. Further, in data set [2] (OATP2B1), the “fold decrease in affinity compared to hydroxyl derivative (compound 5)” value is listed as 7 fold. In addition, the “selectivity for OATP2B1 (in words)” value in data set [2] was “selective”.

On to `CCOP(=O)(OCC)c1c(OCc2ccccc2)ccc2c1CCC1C2CC[C@@]2(C)C(=O)CCC12` (some centres unmarked) [Compound 12], for which the IC50 came to 3.22 µM in data set [1], 0.75 µM in data set [2] and 2.49 µM in data set [3]. Also, in data set [1], the “activity … (in words)” value was “highly active”.

As for `C[C@@]12CCC3c4ccc(O)c(I)c4CCC3C1CCC2=O` (some centres unmarked) [Compound 8], the half-maximal inhibitory concentration (IC50) amounted to 9.28 µM in data set [1], 3.58 µM in data set [2] and 8.28 µM in data set [3]. The “activity … (in words)” value in data set [1] was “weak to borderline inhibitory activity”.

For the compound `COc1ccc2c(c1)CCC1C2CC[C@@]2(C)C(=O)CCC12` (some centres unmarked) [Compound 2], the figures for the IC50 in data set [1], in data set [2] and in data set [3] were greater than 50 µM, 5.41 µM and greater than 50 µM, respectively.

Regarding `C[C@@]12CCC3c4cc(I)c(O)cc4CCC3C1CCC2=O` (some centres unmarked) [Compound 7], the half-inhibitory concentration (IC50) was determined as 22.5 µM in data set [1], 0.6 µM in data set [2] and 18.2 µM in data set [3]. Moreover, in data set [2], the “selectivity for OATP2B1 (in words)” value is recorded as “selective”.

Turning to `C[C@@]12CCC3c4cc(Cl)c(O)cc4CCC3C1CCC2=O` (some centres unmarked) [Compound 9], the IC50 is greater than 50 µM in data set [1], 0.9 µM in data set [2] and greater than 50 µM in data set [3]. In addition, the “selectivity for OATP2B1 (in words)” value in data set [2] was “selective”.

Consider `CCOP(=O)(OCC)c1c(O)ccc2c1CCC1C2CC[C@@]2(C)C(=O)CCC12` (some centres unmarked) [Compound 14], for which the concentration for half-maximal inhibition (IC50) was greater than 50 µM in data set [1], 10.2 µM in data set [2] and greater than 50 µM in data set [3].

For the compound `CCOP(=O)(OCC)c1cc2c(cc1O)CCC1C2CC[C@@]2(C)C(=O)CCC12` (some centres unmarked) [Compound 13], the half-maximal inhibitory concentration (IC50) in data set [1] amounted to 3.79 µM; in data set [2] it was 3.18 µM; in data set [3], 5.24 µM. In addition, in data set [1], the “activity … (in words)” value was “moderate activity”. The “fold decrease in activity compared with compound 11” value in data set [2] (OATP2B1) is on record as “approximately 17 fold”.

As to `C[C@@]12CCC3c4ccc(OCc5ccccc5)cc4CCC3C1CCC2=O` (some centres unmarked) [Compound 3], the concentration for half-maximal inhibition (IC50) in data set [1] was greater than 50 µM; in data set [2], 7.17 µM; in data set [3], greater than 50 µM.

Consider `C[C@@]12CCC3c4cc(Br)c(O)cc4CCC3C1CCC2=O` (some centres unmarked) [Compound 5], for which the IC50 in data set [1] is greater than 50 µM; in data set [2], 1.19 µM; in data set [3] it was greater than 50 µM. In data set [2], the “selectivity for OATP2B1 (in words)” value is “selective”.

Consider `C[C@@]12CCC3c4ccc(O)c(Br)c4CCC3C1CCC2=O` (some centres unmarked) [Compound 6], for which the values for the concentration for half-maximal inhibition (IC50) in data set [1], in data set [2] and in data set [3] were 4.07 µM, 2.97 µM and 9.2 µM, respectively. The “activity … (in words)” value in data set [1] was “weak to borderline inhibitory activity”.
